The text below walks through data of patent US11912668B2, “GCN2 and perk kinase inhibitors and methods of use thereof” (Deciphera Pharmaceuticals, LLC, priority 2020, dated 2024).

The target in one experiment is PERK kinase (Homo sapiens (Human), UniProt Q9NZJ5). As to the kind of experiment: Biochemical assay for PERK (coupled pyruvate kinase/lactate dehydrogenase assay). Particulars: 1 mM ATP, rate from 2-3 h time frame. As for the experimental part: Activity of PERK kinase was determined spectroscopically using a coupled pyruvate kinase/lactate dehydrogenase assay that continuously monitors the ATP hydrolysis-dependent oxidation of NADH (e.g., Schindler et al. Science (2000) 289: 1938-1942). Assays were conducted in 384-well plates (100 μL final volume) using 10 nM PERK (from Beryllium), 0.25 mg/mL Myelin Basic Protein substrate, 1.5 units pyruvate kinase, 2.1 units lactate dehydrogenase, 1 mM phosphoenol pyruvate, 0.28 mM NADH and 1 mM ATP in assay buffer (100 mM Tris, pH 7.5, 15 mM MgCl2, 0.5 mM DTT, 0.004% (w/v) BSA, and 0.004% Triton X-100). Inhibition of PERK was measured by adding serial diluted test compound (final assay concentration of 1% DMSO). A decrease in absorption at 340 nm was monitored continuously for 6 hours at 30° C. on a multi-mode microplate reader (BioTek). The reaction rate was calculated using the 2-3 h time frame. The reaction rate at each concentration of compound was converted to percent inhibition using controls (i.e. reaction with no test compound and reaction with a known inhibitor) and IC50 values were calculated using software routines in Prism (GraphPad software).

The next experiment addresses GCN2 kinase (Homo sapiens (Human), UniProt Q9P2K8). As to the kind of experiment: Biochemical assay for GCN2 (TR-FRET kinase activity assay). Particulars: 1 mM ATP, 3-hour incubation. On the procedure:
Activity of GCN2 kinase was determined using a TR-FRET kinase activity assay (e.g. Riddle et al. Analytical Biochemistry (2006) 356(1) 108-116). Assays were conducted in 384-well plates (13 μL assay volume) using 2 nM GCN2 (Carna Biosciences), 130 nM GFP-EIf2α (Invitrogen), 0.2 mg/mL E. coli tRNA (sigma) and 1 mM ATP in kinase buffer (Invitrogen). Inhibition of GCN2 was measured by adding serial diluted test compound (final assay concentration of 0.5% DMSO) followed by a 3-hour incubation. Tb-peIF2α (pSer52) antibody (Invitrogen) (2 nM final assay concentration) in kinase buffer containing ETDA (final assay concentration of 20 mM) was added. After a 60 min incubation at room temperature, TR-FRET was monitored using an excitation wavelength of 340 nm and emission wavelengths of 490 nm and 520 nm. The emission ratio (520/490) at each compound concentration of was converted to percent inhibition using controls (i.e. reaction with no test compound and reaction with a known inhibitor) and IC50 values were calculated by fitting a four-parameter sigmoidal curve to the data using Prism (GraphPad software).

SMILES strings stand for the structures. Where only a bound is given, the exact number is not on record here.

Chain of GCN2 kinase (Q9P2K8 whole entry): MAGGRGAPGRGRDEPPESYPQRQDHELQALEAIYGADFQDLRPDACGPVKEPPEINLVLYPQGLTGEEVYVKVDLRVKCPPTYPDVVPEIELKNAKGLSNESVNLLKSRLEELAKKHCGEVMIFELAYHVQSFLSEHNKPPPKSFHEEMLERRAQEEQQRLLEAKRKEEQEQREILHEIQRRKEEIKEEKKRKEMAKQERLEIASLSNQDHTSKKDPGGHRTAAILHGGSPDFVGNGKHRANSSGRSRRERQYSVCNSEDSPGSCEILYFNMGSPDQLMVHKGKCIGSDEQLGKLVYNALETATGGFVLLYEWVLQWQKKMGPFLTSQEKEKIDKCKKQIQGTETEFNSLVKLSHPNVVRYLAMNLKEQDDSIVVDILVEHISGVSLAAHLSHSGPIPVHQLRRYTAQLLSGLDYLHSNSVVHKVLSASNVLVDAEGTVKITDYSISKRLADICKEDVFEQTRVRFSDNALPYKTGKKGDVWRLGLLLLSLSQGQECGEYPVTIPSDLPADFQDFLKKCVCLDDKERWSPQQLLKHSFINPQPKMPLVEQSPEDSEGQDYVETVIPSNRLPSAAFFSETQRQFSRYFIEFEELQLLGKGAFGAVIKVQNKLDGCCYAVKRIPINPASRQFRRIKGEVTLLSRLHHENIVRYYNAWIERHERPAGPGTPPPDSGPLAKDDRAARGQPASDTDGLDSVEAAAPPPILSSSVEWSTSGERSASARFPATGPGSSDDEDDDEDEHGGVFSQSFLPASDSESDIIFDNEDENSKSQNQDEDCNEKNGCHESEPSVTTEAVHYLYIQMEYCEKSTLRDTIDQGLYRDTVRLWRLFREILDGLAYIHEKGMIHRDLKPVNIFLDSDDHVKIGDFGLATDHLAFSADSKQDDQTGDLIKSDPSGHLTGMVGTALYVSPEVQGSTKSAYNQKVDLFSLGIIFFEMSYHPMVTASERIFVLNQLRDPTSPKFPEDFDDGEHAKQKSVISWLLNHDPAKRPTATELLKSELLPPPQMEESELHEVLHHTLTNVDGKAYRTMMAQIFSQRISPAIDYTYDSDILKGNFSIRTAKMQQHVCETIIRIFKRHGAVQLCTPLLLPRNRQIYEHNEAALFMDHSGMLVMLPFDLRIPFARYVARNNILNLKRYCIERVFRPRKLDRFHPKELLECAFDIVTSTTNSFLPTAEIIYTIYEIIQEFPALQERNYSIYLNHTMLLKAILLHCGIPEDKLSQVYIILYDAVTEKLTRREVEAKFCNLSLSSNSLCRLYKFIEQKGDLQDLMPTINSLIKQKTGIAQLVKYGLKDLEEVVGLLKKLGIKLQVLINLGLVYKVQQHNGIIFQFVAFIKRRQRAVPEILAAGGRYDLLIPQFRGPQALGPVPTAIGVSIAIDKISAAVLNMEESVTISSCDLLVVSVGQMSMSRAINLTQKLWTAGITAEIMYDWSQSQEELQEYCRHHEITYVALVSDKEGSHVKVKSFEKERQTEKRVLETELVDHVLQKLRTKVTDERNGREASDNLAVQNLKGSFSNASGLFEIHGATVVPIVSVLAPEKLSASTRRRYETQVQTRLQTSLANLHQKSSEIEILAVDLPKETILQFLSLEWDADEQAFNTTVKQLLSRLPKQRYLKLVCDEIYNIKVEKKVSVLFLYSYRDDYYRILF
Chain of PERK kinase (Q9NZJ5 other isoform, or with tags, fused parts or gaps): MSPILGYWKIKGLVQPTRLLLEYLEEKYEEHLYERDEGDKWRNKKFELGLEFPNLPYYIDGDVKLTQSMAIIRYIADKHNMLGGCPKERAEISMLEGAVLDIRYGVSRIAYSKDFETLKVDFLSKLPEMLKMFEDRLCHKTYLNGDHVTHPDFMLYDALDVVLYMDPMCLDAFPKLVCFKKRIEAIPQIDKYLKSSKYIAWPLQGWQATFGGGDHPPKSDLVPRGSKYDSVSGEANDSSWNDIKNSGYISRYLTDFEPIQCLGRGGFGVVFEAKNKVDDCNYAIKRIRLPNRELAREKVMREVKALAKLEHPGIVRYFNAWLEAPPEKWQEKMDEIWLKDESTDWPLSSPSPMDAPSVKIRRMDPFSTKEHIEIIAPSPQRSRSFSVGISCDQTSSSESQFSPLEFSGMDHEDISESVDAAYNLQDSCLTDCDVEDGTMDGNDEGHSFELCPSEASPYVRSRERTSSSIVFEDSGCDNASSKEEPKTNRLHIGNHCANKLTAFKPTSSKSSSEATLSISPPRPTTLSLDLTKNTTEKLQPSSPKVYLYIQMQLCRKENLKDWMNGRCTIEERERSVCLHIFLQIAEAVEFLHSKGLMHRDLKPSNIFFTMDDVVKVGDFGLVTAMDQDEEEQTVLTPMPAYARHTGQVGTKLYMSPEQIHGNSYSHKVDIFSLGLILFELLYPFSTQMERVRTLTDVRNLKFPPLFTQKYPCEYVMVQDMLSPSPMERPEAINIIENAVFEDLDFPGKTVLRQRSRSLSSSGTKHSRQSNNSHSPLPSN

For the compound `CNc1ncc2cc(-c3cc(NS(=O)(=O)c4cc(Cl)cnc4OC)c(C)cc3F)c(C)nc2n1` [Example 21], the concentration for half-maximal inhibition (IC50) at PERK kinase and against GCN2 kinase was 1000 to 10000 nM throughout.

With `CNc1ncc2cc(-c3cc(NS(=O)(=O)c4cc(Cl)cnc4OC)ccc3C(F)(F)F)c(C)nc2n1` [Example 80], the IC50 against PERK kinase lay in the range of 1000 to 10000 nM; against GCN2 kinase, 500 to 1000 nM.

Regarding `CNc1ncc2cc(-c3cccc(NS(=O)(=O)c4cc(C(C)=O)ccc4Cl)c3F)c(NC)nc2n1` [Example 133], the IC50 against PERK kinase and against GCN2 kinase was 100 to 500 nM in each case.

For the compound `CNc1cc2ncc(-c3cc(NS(=O)(=O)c4cc(Cl)cnc4OC)ccc3F)cc2cn1` [Example 60], the half-inhibitory concentration (IC50) on PERK kinase was in the range of 500 to 1000 nM; on GCN2 kinase it was 100 to 500 nM.

`CNc1ncc2cc(-c3cccc(NS(=O)(=O)c4cc(Cl)cnc4OC)c3F)c(NC3COC3)nc2n1` [Example 98]: the IC50 was 500 to 1000 nM against PERK kinase and 100 to 500 nM against GCN2 kinase.

As for `CNc1ncc2cc(-c3cccc(NS(=O)(=O)c4cc(Cl)cnc4OC)c3F)c(NCC3COC3)nc2n1` [Example 99], the 50% inhibitory concentration (IC50) against PERK kinase and against GCN2 kinase was 100 to 500 nM in each case.

For the compound `CNc1ncc2cc(-c3cccc(NS(=O)(=O)c4ccc(Cl)cc4OC)c3F)c(NC)nc2n1` [Example 161], the half-maximal inhibitory concentration (IC50) on PERK kinase and against GCN2 kinase was 100 to 500 nM each time.

As to `CNC(=O)c1cc(Cl)cc(S(=O)(=O)Nc2cccc(-c3cc4cnc(NC)nc4nc3NC)c2F)c1Cl` [Example 170], the concentration for half-maximal inhibition (IC50) against PERK kinase and against GCN2 kinase was 1000 to 10000 nM each time.

On to `CNc1ncc2cc(-c3cccc(NS(=O)(=O)c4cc(Cl)cc(OC)c4Cl)c3F)ccc2n1` [Example 83], for which the values for the IC50 on PERK kinase and against GCN2 kinase were not above 100 nM and 100 to 500 nM, respectively.

Turning to `CNc1ncc2cc(-c3cc(F)cc(NS(=O)(=O)c4cc(Cl)cnc4OC)c3)c(NC[C@@H](C)OC)nc2n1` [Example 107], the half-inhibitory concentration (IC50) on PERK kinase fell in the range of 1000 to 10000 nM; on GCN2 kinase it was 500 to 1000 nM.

Regarding `CNc1ncc2cc(-c3cc(NS(=O)(=O)c4cc(Cl)cnc4OC)cc(F)c3F)ccc2n1` [Example 55], the half-maximal inhibitory concentration (IC50) at PERK kinase is 100 to 500 nM; against GCN2 kinase, 500 to 1000 nM.

On to `CNc1ncc2cc(-c3cccc(NS(=O)(=O)c4cc(Cl)cnc4OC4CC4)c3F)c(NC)nc2n1` [Example 154], for which the concentration for half-maximal inhibition (IC50) against PERK kinase and at GCN2 kinase was 100 to 500 nM throughout.

Consider `CNc1ncc2cc(-c3cccc(NS(=O)(=O)c4ncccc4OC)c3F)c(NC)nc2n1` [Example 166], for which the 50% inhibitory concentration (IC50) against PERK kinase and on GCN2 kinase was 1000 to 10000 nM throughout.

Turning to `CNc1nc2nc(NC3CCCC3)ncc2cc1-c1cccc(NS(=O)(=O)c2cc(Cl)cnc2OC)c1F` [Example 119], the half-maximal inhibitory concentration (IC50) was 100 to 500 nM against PERK kinase and not above 100 nM against GCN2 kinase.

Regarding `CNc1ncc2cc(-c3cc(NS(=O)(=O)c4cc(Cl)cnc4OC)ccn3)ccc2n1` [Example 163], the IC50 against PERK kinase and against GCN2 kinase was 1000 to 10000 nM each time.

In the case of `CNc1ncc2cc(-c3cccc(NS(=O)(=O)c4cc(Cl)c[nH]c4=O)c3F)c(NC)nc2n1` [Example 160], the half-inhibitory concentration (IC50) was in the range of 1000 to 10000 nM at PERK kinase and 500 to 1000 nM against GCN2 kinase.

For `CNc1ncc2cc(-c3cccc(NS(=O)(=O)c4cc(F)cnc4OC)c3F)c(NC)nc2n1` [Example 122], the figures for the half-inhibitory concentration (IC50) on PERK kinase and at GCN2 kinase were 100 to 500 nM and not above 100 nM, respectively.

For `CNc1ncc2cc(-c3cccc(NS(=O)(=O)c4cc(C5CC5)cnc4OC)c3F)c(NC)nc2n1` [Example 153], the IC50 against PERK kinase is 100 to 500 nM; on GCN2 kinase it was not above 100 nM.

For the compound `CNc1ncc2cc(-c3cc(NS(=O)(=O)c4cc(Cl)cnc4OC)cc(F)c3C)c(NC)nc2n1` [Example 34], the IC50 at PERK kinase is 100 to 500 nM; on GCN2 kinase, not above 100 nM.

As to `CNc1cc2nc(C)c(-c3ccc(F)c(NS(=O)(=O)c4cc(Cl)cnc4OC)c3)cc2cn1` [Example 7], the IC50 was in the range of 100 to 500 nM on PERK kinase and 500 to 1000 nM against GCN2 kinase.

`CNc1ncc2cc(-c3cc(NS(=O)(=O)c4cc(Cl)cnc4OC)c(F)cc3F)c(C)nc2n1` [Example 12]: the IC50 against PERK kinase was 1000 to 10000 nM; at GCN2 kinase, 500 to 1000 nM.

For the compound `CNc1ncc2cc(-c3cc(NS(=O)(=O)c4cc(Cl)cc(Cl)c4)c(F)cc3C)c(C)nc2n1` [Example 75], the results for the 50% inhibitory concentration (IC50) on PERK kinase and against GCN2 kinase were 100 to 500 nM and 500 to 1000 nM, respectively.

The IC50 is the point on the concentration scale where inhibition reaches its midpoint. A lower IC50 goes with inhibition by little substance.
